# According to US20230160016A1, “METHODS OF SELECTING A TREATMENT FOR CANCER PATIENTS” (NOVARTIS AG, priority 2017, published 2023):
# System: HR-positive, HER2-negative, advanced breast cancer
# Assay: MONALEESA-2: PFS subgroup analysis by 2-gene signature (CDKN2A and E2F3) score
# Format: in vivo, human
# Conditions: for Events: PFS events, median cut-off, both arms plus letrozole; for HR Across ARMCD: PFS, ribociclib arm vs PBO arm, both plus letrozole
# Description: The patient population consisted of postmenopausal women with HR-positive, HER2-negative, advanced breast cancer, who had previously received no prior therapy for their advanced breast cancer.
# Arm A: Ribociclib (600 mg once daily, days 1-21 of a 28-day cycle)+letrozole (2.5 mg once daily, days 1-28 of a 28-day cycle).
# Arm B: Placebo (once daily, days 1-21 of a 28-day cycle)+letrozole (2.5 mg once daily days 1-28 of a 28-day cycle continuously).
# PFS was defined as the time from the date of randomization to the date of first documented disease progression or death due to any cause. Discontinuation for non-RECIST progression was not counted as a PFS event. If a patient started other anti-neoplastic therapy or had two or more missing tumour assessments, PFS was censored at the last adequate tumour assessment, regardless of subsequent events.
# A Cox Proportional Hazards model was fitted with treatment, liver/lung metastasis which is the study stratification factor, effects of the 16 genes, including CCNA2, CCND1, CCND2, CCND3, CCNE1, CDK2, CDK4, CDK6, CDKN1A, CDKN2A, CDKN2B, CDKN2C, E2F1, E2F3, RB1, and TFDP1, and gene by treatment interactions. […] A set of genes (CDKN2A and E2F3) with significant gene by treatment interactions in the model were identified through backward model selection. Signature scores of all samples were computed as the weighted sum of the gene expression values, where weights were the regression coefficients of respective gene by treatment interactions in the Cox Proportional Hazards model. Patients were classified into high and low subgroups using median signature score as the cut-off. Median PFS and hazard ratio together with 95% confidence intervals were computed for each patient subgroup.
# Result: Using backward model selection, a 2-gene signature (CDKN2A and E2F3) was derived. FIG. 1Q and table 4 are subgroup analysis results, high- and low-gene signature expression groups are defined by median signature score as cut-off.
substance,measurement,setting,value
Ribociclib,Events,high 2-gene signature (CDKN2A and E2F3) score,30
same,Events,low 2-gene signature (CDKN2A and E2F3) score,28
same,HR Across ARMCD,high 2-gene signature score,0.73 (0.46-1.16)
same,HR Across ARMCD,low 2-gene signature score,0.42 (0.26-0.66)
